Assay results taken from patent publication US5972357A, “Healthy foods and cosmetics” (Kikkoman Corporation, priority 1996, dated 1999).

Assays:
[1] = system: bovine serum albumin; assay: suppression of generation of reactive oxygen species in the presence of metal ion (oxidation of bovine serum albumin in Fenton reaction); assay type: biochemical; settings: 1 mM test substance, 10 μM copper ion, 20 mM hydrogen peroxide, 4 mg/ml BSA
Method: The activity for suppressing the generation of reactive oxygen species in the presence of metal ion was evaluated by measuring the effect for suppressing the oxidation of bovine serum albumin by hydroxyl radical in the Fenton reaction system. That is to say, hydroxyl radical was first produced by divalent copper ion and hydrogen peroxide (Fenton reaction). Bovine serum albumin was oxidized by the hydroxyl radical, and thus carbonyl was produced. The carbonyl was reacted with 2,4-dinitrophenylhydrazine, and determined by measuring the absorbance at 365 nm. […] The ratio of decreases of absorbance was expressed as the activity for suppressing the generation of reactive oxygen species in the presence of metal ion.

[2] = system: bovine lens α-crystallin; assay: α-crystallin crosslinking polymerization inhibiting activity; assay type: biochemical; settings: 0.1 mM, 500 mM D-fructose, pH 7.4, 37° C., 2 weeks
Method: The effect of garcinol on bovine lens α-crystallin crosslinking polymerization reaction was evaluated. […] The gel after electrophoresis was stained with Coomassie Brilliant Blue, and the protein amounts in bands were determined with a densitometer. The crosslinking polymerization inhibiting activity of the protein was calculated from the following equation.
Protein polymerization inhibiting activity (%)=(Ps-Pc)/Pc×100
polymerization degree of protein=band density of polymerized protein/band density of monomer protein;
Ps: polymerization degree of protein in the presence of test substance;
Pc: polymerization degree of protein in the absence of test substance.

[3] = system: gastric ulcer; assay: anti-ulcer test against indomethacin-induced gastric ulcer; assay type: in vivo, Wistar/ST male rats; settings: for Length of ulcer: 30 minutes before indomethacin (50 mg/kg s.c.), control 47.75 ± 6.08; for Suppression rate: indomethacin ulcer, vs. control
Method: Ulcer was induced in Wistar/ST male rats having a weight of about 200 g (6 week-old) by indomethacin as a gastric ulcer inducing agent, and the anti-ulcer effects of the test samples were examined in the following six groups to which test samples were administered.
Each group comprises six rats.
______________________________________
Group 1: (control) physiological saline
Group 2: (comparative) cetraxate hydrochloride
Group 3: (the present invention) garcinol
Group 4: (the present invention) garcinol
Group 5: (the present invention) garcinol
Group 6: (the present invention) isogarcinol
In this connection, physiological saline containing 1% sodium carboxymethylcellulose was used as the control, and cetraxate hydrochloride (trade name "Neuer®S", Daiichi Pharmaceuticals Co., Ltd.) which is clinically used as an anti-ulcer agent was used as the comparative sample. The cetraxate hydrochloride insoluble in water was ground into fine powder with a mortar and a pestle and used as a suspension in a 1% sodium carboxymethylcellulose solution. Also, garcinol and isogarcinol in the form of fine powder were used as the suspensions in a 1% sodium carboxymethylcellulose solution in the concentrations which are the doses in the groups. In this connection, garcinol and isogarcinol used in the section of the present invention were those obtained in Referential Examples 1 and 2, respectively.
Experiment was carried out according to the method described by Yamahara et al. (see […] ZASSHI, 114, 401, 1994) which had been slightly modified. That is to say, indomethacin (50 mg/kg) was suspended in 1% sodium carboxymethylcellulose containing 0.1% Tween 20 (Sigma) and injected subcutaneously into the back of 24 hour fasted rats in an amount of 1 ml/rat. The samples in the six sections were orally administered at 30 minutes before administration of indomethacin. After 7 hours from the administration of indomethacin, rats were bleeded to death under anesthetization with nembutal, and stomach was isolated. A phosphate buffer (10 ml) containing 10% formalin was injected into the stomach, which was cut open after 10 minutes, and the length of lesion caused in the glandular stomach portion was defined as the lesion index, which was measured in the mm unit to evaluate the anti-ulcer effect. The suppression rate (%) in Table 1 means the value in which the difference of the length (mm) of ulcer in each group subtracted from the average length, 47.75 (mm) of ulcer in the control was divided with the average length, 47.75 (mm) of ulcer in the control. The larger the value, the stronger the anti-ulcer activity.

[4] = superoxide scavenging activity test with phenazine methosulfate; settings: 40 μM final concentration
Method: The active oxygen scavenging activity was evaluated according to the superoxide scavenging activity test with phenazine methosulfate. That is to say, dihydronicotinamide adenine dinucleotide and phenazine methosulfate were first reacted in a buffer at a physiological hydrogen ion concentration. The absorbance at 560 nm of a formazan pigment produced by the reduction of Nitro Blue Tetrazolium with superoxide was measured. […] The ratio of decreases of absorbance was expressed as superoxide scavenging activity.

[5] = anti-oxidation activity (linoleic acid/β-carotene emulsion, autoxidation); settings: 0.0005% test substance, pH 7.0, 25° C., 460 nm; lesser ratio = stronger
Method: The anti-oxidation activities was evaluated according to the method by A. Ben Aziz et al. […] That is to say, an emulsion of linoleic acid and β-carotene was first prepared with Tween 20 (Sigma) and adjusted to pH 7.0 with 0.1 M trishydroxyaminomethane-hydrochloride. […] During the reaction, the color degradation of β-carotene in association with the autoxidation of linoleic acid was measured with the passage of time as the decreased value of the optical density at 460 nm with a spectrophotometer. […] The antioxidant activity was measured as a ratio of the decreasing rate of absorbance in the presence of the substance to be tested to the decreasing rate of absorbance in the absence of the antioxidant.

[6] = DPPH radical scavenging activity
Method: The 1,1-diphenyl-2-picrylhydrazyl (DPPH) radical scavenging activity was tested with a garcinol preparation prepared in the similar manner as described in Referential Example 1. That is to say, a 1.0×10^-4 M solution (50% ethanolic) of DPPH was prepared, 0.0002% of a test substance was added, and the decrease of optical density at 528 nm was measured after 1 hour reaction at 25° C. for one hour. In this case, ascorbic acid was used as a standard, the decrease of the absorbance was expressed as 100, and the radical scavenging activity of the test substance was measured as equivalences to ascorbic acid. In this connection, a garcinol preparaion used as the test substance, and vitamin E and (+)-catechin were used as references.

C=C(C)[C@@H](CC=C(C)C)C[C@@]12C[C@@H](CC=C(C)C)C(C)(C)[C@@](CC=C(C)C)(C(=O)C(C(=O)c3ccc(O)c(O)c3)=C1O)C2=O [garcinol]
ratio for suppressing the oxidation of bovine serum albumin [1]: 55% | protein polymerization inhibiting activity [2]: 68% | Length of ulcer ([3]; 50 mg/kg oral): 5.75 ± 6.13 mm | Suppression rate ([3]; 50 mg/kg oral): 88.0% | Length of ulcer ([3]; 100 mg/kg oral): 4.00 ± 4.32 mm | Suppression rate ([3]; 100 mg/kg oral): 91.6% | Length of ulcer ([3]; 200 mg/kg oral): 3.00 ± 5.35 mm | Suppression rate ([3]; 200 mg/kg oral): 93.7% | superoxide scavenging rate [4]: 75% | antioxidant activity (ratio of the decreasing rate of absorbance with to without test substance) [5]: 0.50 | DPPH radical scavenging activity (equivalences to ascorbic acid = 100) ([6]; 0.0002% test substance, 1.0×10^-4 M DPPH, 25° C., 1 hour, 528 nm): 85 | radical scavenging activity per unit weight relative to vitamin E ([6]; per unit weight of vitamin E): about three times
